Here are results for 2 compounds from patent publication US11446317B2, “Inositol phosphate-containing composition” (OTSUKA PHARMACEUTICAL CO., LTD., priority 2017, dated 2022).

Structures are written as SMILES. Where “and” joins values, the source holds several entries; their conditions need not be identical. Equal entries are not always repeated.

In series [1] the target is T1, Phosphatase, Alkaline, Calf Intestine (Bos taurus, UniProt P19111).
T1 construct: purchased Merck
Kind of series: Alkaline phosphatase inhibition (IMP to inosine). In kind it is biochemical. Conditions: sample solution 10 mg/mL, pH 6.2 to 6.4, 37° C. 30 minutes. How it is done:
Phosphatase, Alkaline, Calf Intestine (Merck) dissolved in the assay buffer (2.37% aqueous solution of Trizma® maleate (Sigma-Aldrich)) at 5.0 U/mL was used as the enzyme solution.
Inosine monophosphate (IMP) (Sigma-Aldrich) dissolved in the assay buffer at 9 mM was used as the substrate solution.
Phytic acid and the assay buffer were mixed, and the pH was adjusted to 6.2 to 6.4 with sodium hydroxide to obtain a sample solution (10 mg/mL). The control solution was prepared by adjusting the assay buffer to pH 6.2 to 6.4 with sodium hydroxide.
(§1) Enzymatic reaction was performed using a 96 well plate (Thermo Fisher Scientific) in the following manner.
The sample solution or control solution (100 μL/well), the substrate solution (100 μL/well), and the enzyme solution (100 μL/well) were added, and the enzyme reaction was performed at 37° C. for 30 minutes. A 20 μL aliquot of the reaction solution was transferred to multi-screen FITS HV (Merck Millipore), and the reaction was stopped by adding the stop solution (0.33 M HClO4, 180 μl/well). Centrifuge (1080×g for 10 minutes at room temperature) was performed, and the filtrate was subjected to high performance liquid chromatography (HPLC) to determine the amounts of inosine monophosphate and inosine.
The analytical conditions of HPLC are shown below.
Detector: SPD-M 30 A (Shimadzu Corporation) […]

In series [2] the test system is healthy adults. Kind of series: High intake test (5 weeks, 3 to 5 bottles per day) in healthy adults. As to conditions: for change in serum iron level: high intake test. It is filed as in vivo, human. How it is done: The subjects (48 healthy adults: 20 to 65 years of age, 16 men, 16 premenopausal women, and 16 postmenopausal women) ingested 5 bottles per day (or 3 to 5 bottles per day depending on the subject's capacity) of test beverage. The test beverage contains 600 mg of phytic acid per bottle (50 mL). The duration of intake was 5 weeks. The first week being a time period to determine each subject's tolerable volume of test beverage, during which time the subjects ingested test beverages while increasing one bottle daily (Up to 5 bottles per day). If 5 bottles/day could not be taken due to taste, volume, etc., the intake volume was determined by each subject, and the intake volume on day 7 was taken as the tolerable volume for each subject, and each subject ingested this tolerable volume (3 to 5 bottles per day) during the remaining study period (4 weeks). Before and 3 weeks, 5 weeks, and 7 weeks (i.e. 2 weeks after the last intake) after the start of the intake, blood pressure of fasting was measured and blood of fasting was collected. The collected blood was measured for each test item by an analysis contractor. Tests for blood pressure, blood glucose, AST, and serum iron compared to 0 week were performed with a paired t-test, and tests for 1, 25-(OH)2-D compared to 0 week were performed with one-way ANOVA followed by Dunnet's multiple comparison method. A two-sided test was performed with a significance level of 5%. The analysis included 44 subjects excluding 2 subjects who withdrew their consent and 2 subjects who were unable to take more than 3 bottles of the test beverage.

Series [3] deals with healthy adults. Kind of series: Low intake test (12 weeks, 1 bottle per day) in healthy adults. In kind it is in vivo, human. Conditions: for change in serum iron level: low intake test. How it is done: Subjects (39 healthy adults: 20 to 65 years of age, 13 men, premenopausal women, and 13 postmenopausal women) ingested 1 bottle of a test beverage per day for 12 weeks. The test beverage contains 600 mg of phytic acid per bottle (50 mL). Before and 4 weeks, 8 weeks, 12 weeks, and 14 weeks (i.e. 2 weeks after the last intake) after the start of the intake, blood of fasting was collected. The collected blood was measured for each test item by an analysis contractor. Tests for each endpoint compared to 0 week were performed with a paired t-test. Two-sided test was performed with a significance level of 5%.

For series [4], the system named is alkaline phosphatase and 5′nucleotidase (rat small intestine powder). Kind of series: Purine nucleotide metabolism inhibition (IMP to inosine) using rat small intestine powder. In kind it is biochemical. As to conditions: pH 6.2 to 6.4, 37° C. 30 minutes. How it is done:
The rat small intestine powder contains alkaline phosphatase and 5′nucleotidase as the main digestive enzymes. The inhibition of metabolism of purine nucleotides to purine nucleosides by phytic acid was investigated.
A 100 mg/mL of solution of rat small intestine powder (Clare Japan, Inc.) in the assay buffer (2.37% aqueous solution of Trizma® maleate (Sigma-Aldrich)) was used as the enzyme solution. Inosine monophosphate (IMP) (Sigma-Aldrich) (9 mM) in the assay buffer was used as the substrate solution.
Phytic acid and the assay buffer were mixed, and the pH was adjusted to 6.2 to 6.4 with sodium hydroxide to obtain the sample solutions of each concentration. The control solution was prepared by adjusting the assay buffer to pH 6.2 to 6.4 with sodium hydroxide.
as §1
The sample solution or control solution (100 μL/well), the substrate solution (100 μL/well), and the enzyme solution (100 μL/well) were added, and the enzyme reaction was performed at 37° C. for 30 minutes. A 20 μL aliquot of the reaction solution was transferred to multi-screen HTS HV (Merck Millipore), and the reaction was stopped by adding the stop solution (0.33 M HClO4, 180 μL/well). […]

The target of the next series is xanthine oxidase. Conditions: Non-Patent Document 4, cited from earlier work.
For series [5] the following is noted: ingestion of 1,400 mg of sodium phytate (1,000 mg as phytic acid); cited from earlier work.

T1 sequence (P19111 20-506): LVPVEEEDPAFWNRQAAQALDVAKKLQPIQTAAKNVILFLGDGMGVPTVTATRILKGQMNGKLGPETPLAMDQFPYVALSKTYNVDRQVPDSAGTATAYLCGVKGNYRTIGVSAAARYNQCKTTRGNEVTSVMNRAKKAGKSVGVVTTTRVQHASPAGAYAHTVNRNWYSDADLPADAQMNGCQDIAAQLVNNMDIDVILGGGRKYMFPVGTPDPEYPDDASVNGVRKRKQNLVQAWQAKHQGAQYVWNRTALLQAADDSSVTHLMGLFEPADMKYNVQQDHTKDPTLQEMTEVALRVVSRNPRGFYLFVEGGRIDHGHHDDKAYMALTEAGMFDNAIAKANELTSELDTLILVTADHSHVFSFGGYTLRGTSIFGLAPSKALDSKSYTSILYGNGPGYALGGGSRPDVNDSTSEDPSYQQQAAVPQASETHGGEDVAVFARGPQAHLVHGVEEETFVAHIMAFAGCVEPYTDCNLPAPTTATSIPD

The term IC50 denotes the concentration needed to halve the response being measured. `O=P(O)(O)O[C@H]1[C@H](OP(=O)(O)O)[C@@H](OP(=O)(O)O)[C@H](OP(=O)(O)O)[C@@H](OP(=O)(O)O)[C@H]1OP(=O)(O)O` [phytic acid]: in series [1], the “inhibition of metabolism of inosine monophosphate to inosine by alkaline phosphatase” value is “inhibits the conversion of purine nucleotides into purine nucleosides”. The “change in 1,25-(OH)2-D level” value with healthy adults [2] (5 weeks after ingestion compared with before ingestion) is reported as “significant increase”. Further, the “change in diastolic blood pressure” value is recorded as “significant decrease” in the series with healthy adults [2] (high diastolic blood pressure group (86.3 or more at 0 week)), “no change” in the series on healthy adults [2] (low diastolic blood pressure group (73.8 or less at 0 week)) and “no change” in the series on healthy adults [2] (middle diastolic blood pressure group (73.8 to 86.3 at 0 week)). The “change in serum iron level” value in the series on healthy adults [2] (high level group (117 or more at 0 week)) is “significant decreases”; in the series on healthy adults [2] (low level group (79 or less at 0 week)), “significant rises”; in the series on healthy adults [2] (middle level group (79 to 117 at 0 week)), “no large changes”; in the series with healthy adults [3] (high level group (132 or more at 0 week)), “significant decreases”; in the series with healthy adults [3] (low level group (90 or less at 0 week)), “significant rises”; with healthy adults [3] (middle level group (90 to 132 at 0 week)), “no large changes”. In addition, the “change in AST level” value in the series with healthy adults [2] (high level group (21 or more at 0 week), 3, 5, and 7 weeks compared with before ingestion) is listed as “significant decreases”; in the series with healthy adults [2] (low level group (17 or less at 0 week), 3 weeks compared with before ingestion, change not large) it was “significant increase”. The “change in systolic blood pressure” value is “significant decrease” with healthy adults [2] (high systolic blood pressure group (126 or more at 0 week)), “no change” in the series with healthy adults [2] (low systolic blood pressure group (115.5 or less at 0 week)) and “significant change but it was not large” in the series on healthy adults [2] (middle systolic blood pressure group (115.5 to 126 at 0 week)). Further, the “change in HbA1c level” value with healthy adults [3] (high HbA1c level group (5.5 or more at 0 week)) is recorded as “significant decrease”. Moreover, the “change in blood glucose level” value with healthy adults [3] (high blood glucose level group (86 or more at 0 week)) is reported as “significant decrease”. Further, the “inhibition of metabolism of inosine monophosphate to inosine” value in series [4] is “inhibits the conversion of purine nucleotides into purine nucleosides”. For the same compound, the “IC50 of inhibition of xanthine oxidase activity (conversion of xanthine to uric acid)” value at xanthine oxidase was about 19.8 mg/mL. For the same compound, on xanthine oxidase (read-out: IC50 of inhibition of xanthine oxidase activity (conversion of xanthine to uric acid)), the IC50 is about 30 mM.

As to `O=P([O-])([O-])O[C@H]1[C@H](OP(=O)([O-])O)[C@H](OP(=O)([O-])[O-])[C@H](OP(=O)([O-])O)[C@@H](OP(=O)([O-])[O-])[C@@H]1OP(=O)([O-])O.[Na+].[Na+].[Na+].[Na+].[Na+].[Na+].[Na+].[Na+].[Na+]` [sodium phytate], the “blood phytic acid concentration at the maximum” value in series [5] was 0.12 mg/L and 0.181 μM.
